Measured values: ChEMBL document CHEMBL4765389, “Antimicrobial and anti-inflammatory activities of short dodecapeptides derived from duck cathelicidin: Plausible mechanism of bactericidal action and endotoxin neutralization” (Eur J Med Chem, 2020)
Activity calls are given as the source filed them. The rule behind the calls is not given here.

Assays:
[1] = system: Bacteria; test: Antibacterial activity against Gram positive bacteria assessed as reduction in bacterial growth incubated for 24 hrs by CLSI based broth dilution method; type: functional; conditions: read-out: MIC100
[2] = system: RAW264.7; test: Antiinflammatory activity against mouse RAW264.7 cells assessed as reduction in LPS-induced TNFalpha level at 10 uM incubated for 24 hrs by […] relative to control; type: functional
[3] = system: Salmonella typhimurium; test: Antibacterial activity against Salmonella typhimurium KCTC 1926 assessed as reduction in bacterial growth incubated for 24 hrs by CLSI based broth dilution method; type: functional, Salmonella enterica subsp. enterica serovar Typhimurium; conditions: Salmonella enterica, read-out: MIC100
[4] = system: Staphylococcus aureus; test: Antibacterial activity against Staphylococcus aureus KCTC 1621 assessed as reduction in bacterial growth incubated for 24 hrs by CLSI based broth dilution method; type: functional; conditions: read-out: MIC100
[5] = system: Pseudomonas aeruginosa; test: Antibacterial activity against Pseudomonas aeruginosa KCTC 1637 assessed as reduction in bacterial growth incubated for 24 hrs by CLSI based broth dilution method; type: functional; conditions: read-out: MIC100
[6] = system: Enterococcus faecium; test: Antibacterial activity against vancomycin-resistant Enterococcus faecium ATCC 51559 assessed as reduction in bacterial growth incubated for 24 hrs by CLSI based broth dilution method; type: functional; conditions: read-out: MIC100
[7] = system: RAW264.7; test: Antiinflammatory activity against mouse RAW264.7 cells assessed as reduction in LPS-induced nitrite level at 5 uM incubated for 24 hrs by Griess reagent based assay relative to control; type: functional
[8] = Cytotoxicity against mouse NIH/3T3 cells assessed as reduction in cell viability at 20 uM incubated for 24 hrs by MTT assay; type: cell-based, NIH3T3; conditions: NIH/3T3 cells, read-out: INH
[9] = Therapeutic index, ratio of HC10 for sheep RBC to geometric mean MIC for gram negative bacteria; type: toxicity; conditions: sheep red blood cells, read-out: TI
[10] = system: Erythrocyte; test: Hemolytic activity in sheep RBC assessed as reduction in hemoglobin at 256 uM incubated for 1 hr; type: ADME, cell-based, Ovis aries
[11] = system: Erythrocyte; test: Hemolytic activity in sheep RBC assessed as reduction in hemoglobin incubated for 1 hr; type: ADME, cell-based, Ovis aries
[12] = Retention time of the compound by RP-HPLC method; type: physicochemical
[13] = system: Escherichia coli; test: Antibacterial activity against Escherichia coli KCTC 1682 assessed as reduction in bacterial growth incubated for 24 hrs by CLSI based broth dilution method; type: functional; conditions: read-out: MIC100
[14] = system: Staphylococcus epidermidis; test: Antibacterial activity against Staphylococcus epidermidis KCTC 1917 assessed as reduction in bacterial growth incubated for 24 hrs by CLSI based broth dilution method; type: functional; conditions: read-out: MIC100
[15] = system: Candida albicans; test: Antifungal activity against Candida albicans KCTC 7121 assessed as reduction in fungal growth incubated for 24 hrs by CLSI based broth dilution method; type: functional; conditions: read-out: MIC100
[16] = Antibacterial activity against multidrug-resistant Pseudomonas aeruginosa CCARM 2095 assessed as reduction in bacterial growth incubated for 24 hrs by CLSI based broth dilution method; type: functional; conditions: read-out: MIC100
[17] = Therapeutic index, ratio of HC10 for sheep RBC to geometric mean MIC for gram positive bacteria; type: toxicity; conditions: sheep red blood cells, read-out: TI
[18] = Therapeutic index, ratio of HC10 for sheep RBC to geometric mean MIC for yeast; type: toxicity; conditions: sheep red blood cells, read-out: TI
[19] = system: Bacteria; test: Antibacterial activity against Gram negative bacteria assessed as reduction in bacterial growth incubated for 24 hrs by CLSI based broth dilution method; type: functional; conditions: read-out: MIC100
[20] = system: Bacillus subtilis; test: Antibacterial activity against Bacillus subtilis KCTC 3068 assessed as reduction in bacterial growth incubated for 24 hrs by CLSI based broth dilution method; type: functional; conditions: read-out: MIC100
[21] = system: Candida albicans; test: Antifungal activity against Candida albicans KCTC 7965 assessed as reduction in fungal growth incubated for 24 hrs by CLSI based broth dilution method; type: functional; conditions: read-out: MIC100
[22] = system: Saccharomyces cerevisiae; test: Antifungal activity against yeast assessed as reduction in fungal growth incubated for 24 hrs by CLSI based broth dilution method; type: functional; conditions: read-out: MIC100
[23] = Cytotoxicity against mouse RAW264.7 cells assessed as reduction in cell viability at 20 uM incubated for 24 hrs by MTT assay; type: cell-based; conditions: read-out: INH
[24] = system: Staphylococcus aureus; test: Antibacterial activity against methicillin-resistant Staphylococcus aureus CCARM 3095 assessed as reduction in bacterial growth incubated for 24 hrs by CLSI based broth dilution method; type: functional; conditions: read-out: MIC100
[25] = system: Staphylococcus aureus; test: Antibacterial activity against methicillin-resistant Staphylococcus aureus CCARM 3090 assessed as reduction in bacterial growth incubated for 24 hrs by CLSI based broth dilution method; type: functional; conditions: read-out: MIC100
[26] = Antibacterial activity against multidrug-resistant Pseudomonas aeruginosa CCARM 2109 assessed as reduction in bacterial growth incubated for 24 hrs by CLSI based broth dilution method; type: functional; conditions: read-out: MIC100
[27] = system: Staphylococcus aureus; test: Antibacterial activity against methicillin-resistant Staphylococcus aureus CCARM 3089 assessed as reduction in bacterial growth incubated for 24 hrs by CLSI based broth dilution method; type: functional; conditions: read-out: MIC100
[28] = system: Escherichia coli; test: Bacteriostatic activity against Escherichia coli KCTC 1682 assessed as reduction in colony forming unit at 0.5 times MIC measured for 24 hrs by time kill assay; type: functional

Row | Compound | MIC [1] | MIC [3] | MIC [4] | MIC [5] | MIC [6] | cytotoxicity at 24 h, 20 µM [8] | selectivity ratio [9] | Activity [10] | HC10 [11] | Retention_time [12] | MIC [13] | MIC [14] | MIC [15] | MIC [16] | selectivity ratio [17] | selectivity ratio [18] | MIC [19] | MIC [20] | MIC [21] | MIC [22] | other results
1 | H-LAKKIYRAWKRR-NH2 | 14.2 µM | 4 µM | 4 µM | 4 µM | 16 µM | < 10% | 32 | Non-Toxic | > 256 µM | 14.1 min | 8 µM | 8 µM | 8 µM | 32 µM | 36.1 | 64 | 16 µM | 8 µM | 8 µM | 8 µM | inhibition at 10 µM [2]: < 10%; inhibition at 5 µM [7]: < 10%; cytotoxicity at 24 h, 20 µM [23]: < 10%; MIC [24]: 16 µM; MIC [25]: 16 µM; MIC [26]: 32 µM; MIC [27]: 32 µM
2 | CCn1cc(C(=O)O)c(=O)c2ccc(C)nc21 | – | – | – | – | – | – | – | – | – | – | – | – | – | – | – | – | – | – | – | – | Activity [28]: inactive
3 | H-QLVPLAIKIYRAWKRR-NH2 | 21.7 µM | 16 µM | 8 µM | 16 µM | 32 µM | 50% | 7 | Non-Toxic | 180 µM | 24.1 min | 32 µM | 16 µM | 16 µM | 32 µM | 8.3 | 15 | 25.6 µM | 16 µM | 8 µM | 12 µM | cytotoxicity at 24 h, 20 µM [23]: 35%; MIC [24]: 32 µM; MIC [25]: 16 µM; MIC [26]: 32 µM; MIC [27]: 32 µM
